# Data taken from publication PMC4604124, “In Vitro Characterization of the Pharmacological Properties of the Anti-Cancer Chelator, Bp4eT, and Its Phase I Metabolites” (PLoS ONE, 2015).
# Values joined by “and” are separate entries in the source; they are usually repeats but may differ in a detail not shown here. Equal entries are not always repeated. Where two headings read alike, the source gives them in different places.
# Legend:
# Format in all cases: cell-based
# [1] = test system: HL-60 human promyelocytic leukemia cells; experiment: MTT cytotoxicity assay, HL-60 cells; settings: for IC50: MTT, read-out: IC50
# Procedure: (§1) For cytotoxicity experiments, cancer cells were seeded at a density of 5,000 (MCF-7), 10,000 (HL-60) or 2,000 cells/well (HCT116 and A549) in 96-well plates (TPP) for 24 h/37°C prior to the addition of examined agents. The non-cancerous cells, 3T3 and H9c2 cells, were cultured for 24 h/37°C in 96-well plates at a density of 10,000 cells/well, the medium was then changed to serum- and pyruvate-free DMEM (Sigma-Aldrich) and incubated with the cells for another 24 h/37°C. The cytotoxic effects of Bp4eT and its metabolites were studied at different concentrations after a 72 h/37°C incubation. In order to aid the dissolution of the lipophilic ligands, 0.1% dimethyl sulfoxide (v/v) (DMSO; Sigma-Aldrich) was present in the culture medium of all groups. At this concentration, DMSO had no effect on cellular proliferation or viability.
# (§2) The viability of cells were determined using an MTT assay (Sigma-Aldrich) according to previously established methods. The optical density of soluble MTT was measured at λ = 570 nm, subtracting the λ = 690 nm background using a Tecan Infinite 200M plate reader (Tecan Group, Männedorf, Switzerland). The viability or proliferation of experimental groups was expressed as a percentage of the untreated controls (100%).
# (§3) SigmaStat for Windows 3.5 (Systat Software, San Jose, CA, USA) statistical software package was utilized to analyze results. The data are expressed as the mean ± SD of a given number of experiments. Statistical significance was determined using a one-way ANOVA with a Bonferroni post-hoc test or Student’s t-test. The results were considered to be statistically significant when p < 0.05. The IC50 values were calculated using CalcuSyn 2.0 software (Biosoft, Cambridge, UK). Cell cycle analysis was evaluated using MultiCycle AV Software (Phoenix Flow Systems, San Diego, CA, USA).
# [2] = test system: HCT116 human colorectal carcinoma cells; experiment: MTT cytotoxicity assay, HCT116 cells; settings: for IC50: MTT
# Procedure: as §1, §2, §3
# [3] = test system: A549 human lung adenocarcinoma cells; experiment: MTT cytotoxicity assay, A549 cells; settings: for MTT, relative to control (0 = 100): A549, 2 000 b/j, sheet E-Bp4eS
# Procedure: as §1, §2, §3
smiles,measurement,setting,value
"CCNC(=O)NN=C(c1ccccc1)c1ccccn1 [E-Bp4eS, 2-benzoylpyridine 4-ethylsemicarbazone]","Therapeutic index, IC50 non-cancerous cells / IC50 neoplastic cells",[1]; 3T3/HL-60,>6.6
same,"Therapeutic index, IC50 non-cancerous cells / IC50 neoplastic cells",[1]; H9c2/HL-60,5.9
same,IC50,"[1]; HL-60, 72 h/37°C, mean ± SD, n ≥ 4",151 ± 9.1 µM
same,"MTT, relative to control (0 = 100)","[1]; HL-60, 10 000 b/j, 3 μM, průměr (mean), sheet E-Bp4eS",97.96
same,"MTT, relative to control (0 = 100)","[1]; HL-60, 10 000 b/j, 3 μM, single experiment (date), sheet E-Bp4eS",100.761 and 104.358 and 95.5768 and 91.1569
same,"MTT, relative to control (0 = 100)","[1]; HL-60, 10 000 b/j, 10 μM, průměr (mean), sheet E-Bp4eS",99.97
same,"MTT, relative to control (0 = 100)","[1]; HL-60, 10 000 b/j, 10 μM, single experiment (date), sheet E-Bp4eS",101.567 and 98.1615 and 96.1949 and 103.964
same,"MTT, relative to control (0 = 100)","[1]; HL-60, 10 000 b/j, 30 μM, průměr (mean), sheet E-Bp4eS",95.62
same,"MTT, relative to control (0 = 100)","[1]; HL-60, 10 000 b/j, 30 μM, single experiment (date), sheet E-Bp4eS",99.0132 and 96.6154 and 90.9257 and 95.914
same,"MTT, relative to control (0 = 100)","[1]; HL-60, 10 000 b/j, 100 μM, průměr (mean), sheet E-Bp4eS",79.54
same,"MTT, relative to control (0 = 100)","[1]; HL-60, 10 000 b/j, 100 μM, single experiment (date), sheet E-Bp4eS",81.2266 and 75.7782 and 76.5508 and 84.6199
same,"MTT, relative to control (0 = 100)","[1]; HL-60, 10 000 b/j, 120 μM, průměr (mean), sheet E-Bp4eS",74.92
same,"MTT, relative to control (0 = 100)","[1]; HL-60, 10 000 b/j, 120 μM, single experiment (date), sheet E-Bp4eS",75.3051 and 80.9667 and 70.8568 and 72.5675
same,"MTT, relative to control (0 = 100)","[1]; HL-60, 10 000 b/j, 140 μM, průměr (mean), sheet E-Bp4eS",62.34
same,"MTT, relative to control (0 = 100)","[1]; HL-60, 10 000 b/j, 140 μM, single experiment (date), sheet E-Bp4eS",62.4842 and 69.381 and 45.4725 and 72.037
same,"MTT, relative to control (0 = 100)","[1]; HL-60, 10 000 b/j, 150 μM, průměr (mean), sheet E-Bp4eS",38.39
same,"MTT, relative to control (0 = 100)","[1]; HL-60, 10 000 b/j, 300 μM, průměr (mean), sheet E-Bp4eS",3.81
same,IC50,"[1]; HL-60, 10 000 b/j, single experiment (date), sheet E-Bp4eS",159 µM and 144 µM and 141 µM
same,IC50,"[1]; Homo sapiens, HL-60, HL-60, 10 000 b/j, průměr (mean), sheet E-Bp4eS",150 µM
same,IC50,"[1]; Homo sapiens, HL-60, HL-60, 10 000 b/j, single experiment (date), sheet E-Bp4eS",158 µM
same,"Therapeutic index, IC50 non-cancerous cells / IC50 neoplastic cells",[2]; 3T3/HCT116,>10.5
same,"Therapeutic index, IC50 non-cancerous cells / IC50 neoplastic cells",[2]; H9c2/HCT116,9.3
same,IC50,"[2]; HCT116, 72 h/37°C, mean ± SD, n ≥ 4",95.4 ± 10.4 µM
same,"MTT, relative to control (0 = 100)","[2]; HCT116, 2 000 b/j, 1 μM, průměr (mean), sheet E-Bp4eS",93.86
same,"MTT, relative to control (0 = 100)","[2]; HCT116, 2 000 b/j, 1 μM, single experiment (date), sheet E-Bp4eS",90.5387 and 95.2075 and 90.3432 and 99.3608
same,"MTT, relative to control (0 = 100)","[2]; HCT116, 2 000 b/j, 3 μM, průměr (mean), sheet E-Bp4eS",91.05
same,"MTT, relative to control (0 = 100)","[2]; HCT116, 2 000 b/j, 3 μM, single experiment (date), sheet E-Bp4eS",88.1499 and 86.4536 and 88.7606 and 100.823
same,"MTT, relative to control (0 = 100)","[2]; HCT116, 2 000 b/j, 10 μM, průměr (mean), sheet E-Bp4eS",89.35
same,"MTT, relative to control (0 = 100)","[2]; HCT116, 2 000 b/j, 10 μM, single experiment (date), sheet E-Bp4eS",79.5919 and 93.1715 and 88.2723 and 96.3507
same,"MTT, relative to control (0 = 100)","[2]; HCT116, 2 000 b/j, 30 μM, průměr (mean), sheet E-Bp4eS",86.47
same,"MTT, relative to control (0 = 100)","[2]; HCT116, 2 000 b/j, 30 μM, single experiment (date), sheet E-Bp4eS",82.3738 and 90.947 and 82.3476 and 90.2168
same,"MTT, relative to control (0 = 100)","[2]; HCT116, 2 000 b/j, 100 μM, průměr (mean), sheet E-Bp4eS",59.19
same,"MTT, relative to control (0 = 100)","[2]; HCT116, 2 000 b/j, 100 μM, single experiment (date), sheet E-Bp4eS",61.842 and 75.8026 and 45.1438 and 53.9757
same,"MTT, relative to control (0 = 100)","[2]; HCT116, 2 000 b/j, 300 μM, průměr (mean), sheet E-Bp4eS",9.27
same,"MTT, relative to control (0 = 100)","[2]; HCT116, 2 000 b/j, 1000 μM, průměr (mean), sheet E-Bp4eS",7.18
same,"MTT, relative to control (0 = 100)","[2]; HCT116, 2 000 b/j, 1000 μM, single experiment (date), sheet E-Bp4eS",7.957 and 7.9705 and 6.656 and 6.131
same,IC50,"[2]; HCT116, 2 000 b/j, single experiment (date), sheet E-Bp4eS",108 µM and 85.2 µM and 99.1 µM
same,IC50,"[2]; Homo sapiens, HCT-116, HCT116, 2 000 b/j, průměr (mean), sheet E-Bp4eS",95.4 µM
same,IC50,"[2]; Homo sapiens, HCT-116, HCT116, 2 000 b/j, single experiment (date), sheet E-Bp4eS",89.2 µM
same,"Therapeutic index, IC50 non-cancerous cells / IC50 neoplastic cells",[3]; 3T3/A549,>4.0
same,IC50,"[3]; A549, 72 h/37°C, MTT, mean ± SD, n ≥ 4",248 ± 28.4 µM
same,"MTT, relative to control (0 = 100)","[3]; 1 μM, průměr (mean)",93.23
same,"MTT, relative to control (0 = 100)","[3]; 1 μM, single experiment (date)",97.4794 and 93.8067 and 89.4519 and 90.2593 and 95.1529
same,"MTT, relative to control (0 = 100)","[3]; 3 μM, průměr (mean)",94.11
